Test results taken from ChEMBL document CHEMBL3232895, “N-aryl-2,6-dimethylbenzamides, a new generation of tocainide analogues as blockers of skeletal muscle voltage-gated sodium channels” (J Med Chem, 2014).

What was measured:
serum albumin [1] = target: T1, serum albumin (Homo sapiens, UniProt P02768); experiment: Binding affinity to human serum albumin at 30 uM by HPLC analysis; format: ADME; settings: read-out: PB (converted)
serum albumin [2] = target: T1, serum albumin; experiment: Binding affinity to human serum albumin assessed as fraction unbound at 30 uM by HPLC analysis; format: ADME
serum albumin [3] = target: T2, serum albumin (Rattus norvegicus, UniProt P02770); experiment: Binding affinity to rat serum albumin at 30 uM by HPLC analysis; format: ADME; settings: read-out: PB (converted)
T2 sequence (P02770 whole entry): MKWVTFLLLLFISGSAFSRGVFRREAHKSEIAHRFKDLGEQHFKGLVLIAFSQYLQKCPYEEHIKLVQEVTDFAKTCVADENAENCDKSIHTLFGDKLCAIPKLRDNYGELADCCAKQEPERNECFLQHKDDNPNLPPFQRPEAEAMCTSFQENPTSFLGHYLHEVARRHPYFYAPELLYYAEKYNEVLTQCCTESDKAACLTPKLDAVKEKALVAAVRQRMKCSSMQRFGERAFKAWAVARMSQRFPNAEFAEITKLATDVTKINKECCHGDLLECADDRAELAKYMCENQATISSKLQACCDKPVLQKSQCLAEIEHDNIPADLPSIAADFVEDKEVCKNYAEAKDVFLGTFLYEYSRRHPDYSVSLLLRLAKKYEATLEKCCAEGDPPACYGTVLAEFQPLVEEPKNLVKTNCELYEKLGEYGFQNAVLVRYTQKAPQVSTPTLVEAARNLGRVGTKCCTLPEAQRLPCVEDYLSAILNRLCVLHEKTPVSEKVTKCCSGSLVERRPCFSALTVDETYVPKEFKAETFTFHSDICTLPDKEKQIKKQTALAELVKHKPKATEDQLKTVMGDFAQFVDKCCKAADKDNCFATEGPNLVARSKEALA

serum albumin [4] = target: T2, serum albumin; experiment: Binding affinity to rat serum albumin assessed as fraction unbound at 30 uM by HPLC analysis; format: ADME
[5] = Ratio of binding affinity to rat serum albumin assessed as fraction unbound to binding affinity to human serum albumin assessed as fraction unbound; format: ADME; settings: isolated protein
Pelophylax lessonae [6] = experiment: Inhibition of voltage-gated sodium channel in Rana esculenta ventral branch of semitendinosus muscle assessed as tonic block by measuring reduction of maximal peak sodium transient at 300 uM at 10 Hz stimulation frequency by Hille-Campbell vaseline gap voltage-clamp recording; format: tissue-based
[7] = Inhibition of voltage-gated sodium channel in Rana esculenta ventral branch of semitendinosus muscle at -140 mV of holding potential by Hille-Campbell vaseline gap voltage-clamp recording; format: tissue-based, Pelophylax lessonae
[8] = Inhibition of voltage-gated sodium channel in Rana esculenta ventral branch of semitendinosus muscle assessed as tonic block at 10 Hz stimulation frequency by measuring reduction of maximal peak sodium transient by Hille-Campbell vaseline gap voltage-clamp recording; format: tissue-based, Pelophylax lessonae
Pelophylax lessonae [9] = experiment: Ratio of IC50 for tonic block of voltage-gated sodium channel in Rana esculenta ventral branch of semitendinosus muscle to IC50 for use-dependent block of voltage-gated sodium channel in Rana esculenta ventral branch of semitendinosus muscle at 2 Hz frequency; format: tissue-based
[10] = Inhibition of voltage-gated sodium channel in Rana esculenta ventral branch of semitendinosus muscle assessed as use-dependent block at 10 Hz frequency by Hille-Campbell vaseline gap voltage-clamp recording; format: tissue-based, Pelophylax lessonae
[11] = Inhibition of voltage-gated sodium channel in Rana esculenta ventral branch of semitendinosus muscle assessed as use-dependent block at 2 Hz stimulation frequency by Hille-Campbell vaseline gap voltage-clamp recording; format: tissue-based, Pelophylax lessonae
[12] = Inhibition of voltage-gated sodium channel in Rana esculenta ventral branch of semitendinosus muscle at -70 mV of holding potential by Hille-Campbell vaseline gap voltage-clamp recording; format: tissue-based, Pelophylax lessonae
Pelophylax lessonae [13] = experiment: Ratio of IC50 for tonic block of voltage-gated sodium channel in Rana esculenta ventral branch of semitendinosus muscle to IC50 for use-dependent block of voltage-gated sodium channel in Rana esculenta ventral branch of semitendinosus muscle at 10 Hz frequency; format: tissue-based
[14] = Inhibition of voltage-gated sodium channel in Rana esculenta ventral branch of semitendinosus muscle assessed as tonic block by measuring reduction of maximal peak sodium transient at holding potential -100 mV by Hille-Campbell vaseline gap voltage-clamp recording; format: tissue-based, Pelophylax lessonae
Pelophylax lessonae [15] = experiment: Steady state inactivation of voltage-gated sodium channel in Rana esculenta ventral branch of semitendinosus muscle at 100 uM assessed as change in potential at which 50% of sodium channel were inactivated measured at 1000 ms prepulse by Hille-Campbell vaseline gap voltage-clamp recording; format: tissue-based
Pelophylax lessonae [16] = experiment: Inhibition of voltage-gated sodium channel in Rana esculenta ventral branch of semitendinosus muscle assessed as tonic block by measuring reduction of maximal peak sodium transient at 500 uM at 10 Hz stimulation frequency by Hille-Campbell vaseline gap voltage-clamp recording; format: tissue-based
serum albumin [17] = target: T1, serum albumin; experiment: Binding affinity to human serum albumin; format: ADME; settings: read-out: PB (converted)

T1 sequence (P02768 whole entry): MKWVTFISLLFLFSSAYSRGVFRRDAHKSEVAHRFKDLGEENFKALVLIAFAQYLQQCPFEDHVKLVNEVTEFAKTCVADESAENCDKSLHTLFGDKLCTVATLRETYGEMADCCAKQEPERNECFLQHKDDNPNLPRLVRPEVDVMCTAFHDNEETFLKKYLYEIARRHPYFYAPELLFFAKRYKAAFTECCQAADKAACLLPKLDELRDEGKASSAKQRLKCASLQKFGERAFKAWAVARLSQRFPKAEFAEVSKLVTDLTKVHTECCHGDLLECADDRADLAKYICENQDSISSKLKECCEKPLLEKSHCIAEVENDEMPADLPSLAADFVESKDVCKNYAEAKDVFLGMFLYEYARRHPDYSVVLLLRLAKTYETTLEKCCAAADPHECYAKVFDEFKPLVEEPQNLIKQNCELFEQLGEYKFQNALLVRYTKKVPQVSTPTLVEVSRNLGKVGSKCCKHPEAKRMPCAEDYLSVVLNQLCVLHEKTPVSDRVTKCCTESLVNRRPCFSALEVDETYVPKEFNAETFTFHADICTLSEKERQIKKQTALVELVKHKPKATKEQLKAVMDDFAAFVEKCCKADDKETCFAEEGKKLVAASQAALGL

| Structure (SMILES) | fraction unbound at 30 µM (serum albumin [1]) | fraction unbound at 30 µM (serum albumin [2]) | fraction unbound at 30 µM (serum albumin [3]) | fraction unbound at 30 µM (serum albumin [4]) | Ratio [5] | inhibition (Pelophylax lessonae [6]) | IC50 [7] | pIC50 [8] | Ratio IC50 (Pelophylax lessonae [9]) | IC50 [10] | IC50 [11] | IC50 [12] | Ratio IC50 (Pelophylax lessonae [13]) | IC50 [14] | Activity (Pelophylax lessonae [15]) | inhibition (Pelophylax lessonae [16]) | fraction unbound (serum albumin [17]) |
| --- | --- | --- | --- | --- | --- | --- | --- | --- | --- | --- | --- | --- | --- | --- | --- | --- | --- |
| Cc1cccc(C)c1NC(=O)C1CCN(Cc2ccccc2)C1 (centres undefined) | 0.029 | 0.0284 | 0.064 | 0.0644 | 2.27 |  |  |  |  |  |  |  |  |  |  |  |  |
| Cc1cccc(C)c1NC(=O)CC(C)N (racemic) |  |  |  |  |  | 35.6% | 603 µM | 4.31 | 5.2 | 48.8 µM | 81.2 µM | 54 µM | 8.6 | 420 µM | 4.8 mV |  |  |
| Cc1cccc(C)c1NC(=O)CC(C)NCc1ccccc1 (racemic) | 0.047 | 0.0474 | 0.121 | 0.122 |  |  |  |  |  |  |  |  |  |  |  |  |  |
| Cc1cccc(C)c1NC(=O)CC(C)NCc1cccc2ccccc12 (racemic) | 0.033 | 0.033 | 0.04 | 0.04 |  |  |  |  |  |  |  |  |  |  |  |  |  |
| Cc1cccc(C)c1NC(=O)C(C)N (racemic) [TOCAINIDE] | 0.746 | 0.746 | 0.64 | 0.64 | 0.86 |  | 985 µM |  | 1.5 | 248 µM | 350 µM | 254 µM | 2.1 | 523 µM |  | 42.6% |  |
| O=C1CN=C(c2ccccc2Cl)c2cc([N+](=O)[O-])ccc2N1 [CLONAZEPAM] | 0.143 |  | 0.117 |  |  |  |  |  |  |  |  |  |  |  |  |  | 0.14 |
